Experimental findings from article PMC5824344 (ACS Chemical Biology, 2017) are described below.

As a reminder, the IC50 is the point on the concentration scale where inhibition reaches its midpoint.

Assay [1] deals with T1, human lysosomal α-glucosidase (Homo sapiens, UniProt P10253).
T1 construct: purchased Sanofi Genzyme
Nature of the assay: Inhibition of human lysosomal α-glucosidase (α-p-nitrophenylglucoside substrate). It counts as biochemical. The conditions noted are these: for IC50: isolated enzyme in vitro, mean of three measurements, read-out: IC50, α-Glucosidase, Human lysosome.

A further assay addresses T2, Rat intestinal sucrase (Rattus norvegicus, UniProt P23739).
T2 construct: from tissue; host or cells: intestine of male Wistar rats, partially purified extract
Nature of the assay: Inhibition of rat intestinal sucrase (natural substrate, glucose release). The assay is classed as biochemical. The conditions noted are these: for IC50: isolated enzyme in vitro, mean of three measurements, read-out: IC50, α-Glucosidase, Rat intestinal sucrase.

The test system of assay [2] is GluI and GluII in primary human monocyte-derived macrophages (MDMΦ). Description: Free oligosaccharide (FOS) assay in primary monocyte-derived macrophages. The assay is classed as cell-based. The conditions noted are these: naive MDMΦ. As to the method: (§1) 5 Cell and Virus Culture and Assays
(§2) 5.1 Culture of Cell Lines
The human hepatoma cell line Huh7.5 (Apath, LLC) was cultured in Dulbecco’s modiﬁed Eagle medium (DMEM) with Glutamax (Gibco) supplemented with 100 µg mL−1 strepto-mycin (Sigma), 100 U mL−1 penicillin (Sigma), 100 µm MEM non-essential amino acids (Gibco) and 10% (volume/volume, v/v) heat-inactivated (56 ◦C, 30 min) fetal calf serum (FCS, Seralab). The human monocytic cell line HL60 (ATCC), human T lymphocyte cell line Jurkat (ATCC), and human B lymphocyte cell line Raji (ATCC) were each maintained in RPMI 1640 media with Glutamax (Gibco) supplemented with 100 µg mL−1 streptomycin, 100 U mL−1 penicillin and 10% (v/v) FCS. […]
(§3) Cell viability was measured using the CellTiter 96 R© AQueous One Solution Cell Prolifera-tion MTA (3-(4,5-dimethylthiazol-2-yl)-5-(3-carboxymethoxyphenyl)-2-(4-sulfophenyl)-2H - […]
(§4) After a further one to two hour incubation, the absorbance at 490 nm was measured on a Molecular Devices SpectraMax M5 microplate reader. […]
(§5) Absorbances were averaged across replicates, and corrected for background by subtracting the value for media-only wells. Each drug treatment was then evaluated as a percentage of untreated cells. […]
FOS analysis was carried out as described previously. […] Before purifying the FOS, each sample was analyzed for protein content using the modiﬁed Bradford assay. […]

The test system of assay [3] is GluI and GluII in HL60 (promyelocytic) cells. Nature of the assay: Free oligosaccharide (FOS) assay in HL60 cells. The assay is classed as cell-based, human. The conditions noted are these: 48 h. As to the method: as §1, §2
(§6) The human hepatoma cell line Huh7.5 (Apath, LLC) was cultured in Dulbecco’s modiﬁed Eagle medium (DMEM) with Glutamax (Gibco) supplemented with 100 µg mL−1 strepto-mycin (Sigma), 100 U mL−1 penicillin (Sigma), 100 µm MEM non-essential amino acids (Gibco) and 10% (volume/volume, v/v) heat-inactivated (56 ◦C, 30 min) fetal calf serum (FCS, Seralab). The human monocytic cell line HL60 (ATCC), human T lymphocyte cell line Jurkat (ATCC), and human B lymphocyte cell line Raji (ATCC) were each maintained in RPMI 1640 media with Glutamax (Gibco) supplemented with 100 µg mL−1 streptomycin, 100 U mL−1 penicillin and 10% (v/v) FCS. The monkey kidney cell line LLC-MK2 (a gift from Armed Forces Research Institute of Medical Sciences, Thailand) was cultured in M199 media (Gibco) supplemented with 2 mm l-glutamine, 100 µg mL−1 streptomycin, 100 U mL−1 penicillin and 20% (v/v) FCS. Subsequently, these are referred to as growth media for each cell line. Unless otherwise indicated, all cell incubations were carried out at 37 ◦C and 5% CO2. All cells were maintained as mycoplasma free, with regular veriﬁcations by polymerase chain reaction (PCR).
5.2 Isolation and Culture of Primary Human MDMΦ
Primary human MDMΦ were generated from human monocytes isolated from buﬀy coats (NHS Blood and Transplant, surplus to clinical requirements) as described previously 5 and cultured in X-VIVO10 medium (Lonza) supplemented with 1% (v/v) heat-inactivated (56◦C, 30 min) autologous plasma. The use of human blood was approved by the NHS National Research Ethics Service (09/H0606/3).
as §3
tetrazolium, inner salt) Assay (Promega) according to the manufacturer’s instruction. Brieﬂy, cells were treated in triplicate either for 4 d (Huh7.5) or 2 d (all other cell types). […]
as §4, §5
(§7) FOS analysis was carried out as described previously. […] Before purifying the FOS, each sample was analyzed for protein content using the modiﬁed Bradford assay. […] The labelled glycans were then analyzed by normal phase high performance liquid chromatography. Retention times and peak area were used to identify and quantify glycans, respectively, by comparison to standards of known identity and molar quantity. FOS quantities were normalized to protein levels.

In assay [4] the target is T3, Rat liver ER α-glucosidase II (Rattus norvegicus, UniProt A0A8I6GFL3).
T3 construct: Rat liver ER, II; from tissue; host or cells: liver of male Wistar rats
Nature of the assay: Inhibition of isolated rat liver ER α-glucosidase II (α-p-nitrophenylglucoside substrate). The assay is classed as biochemical. The conditions noted are these: isolated enzyme in vitro; read-out: IC50 with regard to GluII. As to the method: 4 Enzyme Inhibition Assays
All rat enzymes were isolated from 18-week-old, male Wistar rats, while human lysosomal α-glucosidase was obtained in commercially available form from Sanoﬁ Genzyme. Inhibition of isolated glucosidases was evaluated as described previously. 3 Brieﬂy, maltase, isomaltase, sucrase, and cellobiase were used as partially puriﬁed tissue extracts. Inhibition assays for each enzyme were performed with the respective natural substrate, and release of d-glucose measured by Glucose B-test (Wako Diagnostics). Assays of rat ER α-glucosidase II and human lysosomal α-glucosidase inhibition were conducted with α-p-nitrophenylglucoside as substrate; 400 mm Na2CO3 was added to quench these reactions, and the extent of hydrolysis was evaluated as absorbance at 400 nm by spectrophotometer.
ER α-glucosidase I inhibition assays were performed using anthranilic acid-labelled Glc3Man7GlcNAc2 as substrate. After terminating the reaction with acetonitrile, protein was removed by cen-trifugation through a 10 kDa molecular weight cut oﬀ ﬁlter. The amount of hydrolysis was then quantiﬁed by normal phase high performance liquid chromatography analysis of unreacted substrate and product (Glc2Man7GlcNAc2).4
ER α-glucosidase II inhibition assays using native-like substrates were performed using an-thranilic acid-labelled Glc2Man7GlcNAc2 as substrate. After terminating the reaction with acetonitrile, protein was removed by centrifugation through a 10 kDa molecular weight cut oﬀ ﬁlter. The amount of hydrolysis was then quantiﬁed by normal phase high performance liq-uid chromatography analysis of unreacted substrate and both products (Glc1Man7GlcNAc2

Assay [5] concerns GluI and GluII in human hepatoma Huh7.5 cells. Nature of the assay: Free oligosaccharide (FOS) assay in Huh7.5 cells. The assay is classed as cell-based. The conditions noted are these: naive Huh7.5 cells, 48 h, 50 µm. As to the method: as §1, §2
as §6, with “All cells were maintained as mycoplasma free, with regular veriﬁcations by polymerase chain reaction (PCR).” left out
as §3, §4, §5, §7

T2 sequence (P23739 whole entry): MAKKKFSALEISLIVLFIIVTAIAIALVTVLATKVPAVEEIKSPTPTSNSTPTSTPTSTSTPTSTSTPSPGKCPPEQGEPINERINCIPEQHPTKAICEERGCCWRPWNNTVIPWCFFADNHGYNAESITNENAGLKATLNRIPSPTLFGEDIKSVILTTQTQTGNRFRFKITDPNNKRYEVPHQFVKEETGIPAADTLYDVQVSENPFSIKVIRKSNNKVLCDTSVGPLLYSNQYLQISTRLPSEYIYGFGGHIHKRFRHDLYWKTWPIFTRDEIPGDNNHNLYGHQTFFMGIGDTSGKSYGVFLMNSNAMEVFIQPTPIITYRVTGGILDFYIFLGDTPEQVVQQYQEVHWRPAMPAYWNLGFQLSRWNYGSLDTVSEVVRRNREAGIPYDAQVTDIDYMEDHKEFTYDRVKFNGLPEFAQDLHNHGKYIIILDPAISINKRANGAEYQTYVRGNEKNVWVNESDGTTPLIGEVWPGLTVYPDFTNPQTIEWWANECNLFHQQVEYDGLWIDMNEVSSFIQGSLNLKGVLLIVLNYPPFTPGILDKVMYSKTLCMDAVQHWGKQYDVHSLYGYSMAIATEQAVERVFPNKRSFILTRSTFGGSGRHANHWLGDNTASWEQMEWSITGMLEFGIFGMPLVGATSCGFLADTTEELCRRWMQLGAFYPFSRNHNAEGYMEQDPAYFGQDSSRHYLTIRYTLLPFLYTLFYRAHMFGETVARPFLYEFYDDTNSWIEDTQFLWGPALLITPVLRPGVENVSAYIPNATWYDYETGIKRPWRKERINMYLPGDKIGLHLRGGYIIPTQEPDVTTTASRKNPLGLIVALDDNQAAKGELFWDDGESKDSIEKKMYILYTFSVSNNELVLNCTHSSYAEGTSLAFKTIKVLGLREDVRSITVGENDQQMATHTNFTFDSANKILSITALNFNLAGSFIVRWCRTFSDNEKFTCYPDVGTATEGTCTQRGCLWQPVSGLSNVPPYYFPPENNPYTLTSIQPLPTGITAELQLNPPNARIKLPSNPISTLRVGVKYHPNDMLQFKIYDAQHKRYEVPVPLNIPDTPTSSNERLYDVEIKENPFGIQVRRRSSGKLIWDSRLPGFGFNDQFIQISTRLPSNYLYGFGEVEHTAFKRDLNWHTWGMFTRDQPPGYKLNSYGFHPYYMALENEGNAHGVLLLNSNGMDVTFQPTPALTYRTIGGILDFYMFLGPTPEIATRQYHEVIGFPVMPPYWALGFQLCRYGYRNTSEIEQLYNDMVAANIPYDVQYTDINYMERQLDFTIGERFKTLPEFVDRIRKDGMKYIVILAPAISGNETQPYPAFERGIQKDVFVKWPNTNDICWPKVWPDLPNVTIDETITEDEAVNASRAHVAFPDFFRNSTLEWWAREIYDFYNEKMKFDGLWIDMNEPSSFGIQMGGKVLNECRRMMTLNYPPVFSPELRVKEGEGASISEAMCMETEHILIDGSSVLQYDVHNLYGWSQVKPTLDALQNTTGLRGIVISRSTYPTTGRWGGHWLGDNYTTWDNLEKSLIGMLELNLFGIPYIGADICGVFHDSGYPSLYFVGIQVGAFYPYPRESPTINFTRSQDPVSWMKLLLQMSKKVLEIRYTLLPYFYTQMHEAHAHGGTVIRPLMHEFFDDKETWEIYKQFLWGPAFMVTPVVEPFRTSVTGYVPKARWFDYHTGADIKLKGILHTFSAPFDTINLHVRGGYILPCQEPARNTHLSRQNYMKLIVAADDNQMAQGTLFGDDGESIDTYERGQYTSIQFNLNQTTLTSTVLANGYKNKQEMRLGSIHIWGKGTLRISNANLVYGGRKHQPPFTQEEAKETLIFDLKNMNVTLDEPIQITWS
T3 sequence (A0A8I6GFL3 33-944): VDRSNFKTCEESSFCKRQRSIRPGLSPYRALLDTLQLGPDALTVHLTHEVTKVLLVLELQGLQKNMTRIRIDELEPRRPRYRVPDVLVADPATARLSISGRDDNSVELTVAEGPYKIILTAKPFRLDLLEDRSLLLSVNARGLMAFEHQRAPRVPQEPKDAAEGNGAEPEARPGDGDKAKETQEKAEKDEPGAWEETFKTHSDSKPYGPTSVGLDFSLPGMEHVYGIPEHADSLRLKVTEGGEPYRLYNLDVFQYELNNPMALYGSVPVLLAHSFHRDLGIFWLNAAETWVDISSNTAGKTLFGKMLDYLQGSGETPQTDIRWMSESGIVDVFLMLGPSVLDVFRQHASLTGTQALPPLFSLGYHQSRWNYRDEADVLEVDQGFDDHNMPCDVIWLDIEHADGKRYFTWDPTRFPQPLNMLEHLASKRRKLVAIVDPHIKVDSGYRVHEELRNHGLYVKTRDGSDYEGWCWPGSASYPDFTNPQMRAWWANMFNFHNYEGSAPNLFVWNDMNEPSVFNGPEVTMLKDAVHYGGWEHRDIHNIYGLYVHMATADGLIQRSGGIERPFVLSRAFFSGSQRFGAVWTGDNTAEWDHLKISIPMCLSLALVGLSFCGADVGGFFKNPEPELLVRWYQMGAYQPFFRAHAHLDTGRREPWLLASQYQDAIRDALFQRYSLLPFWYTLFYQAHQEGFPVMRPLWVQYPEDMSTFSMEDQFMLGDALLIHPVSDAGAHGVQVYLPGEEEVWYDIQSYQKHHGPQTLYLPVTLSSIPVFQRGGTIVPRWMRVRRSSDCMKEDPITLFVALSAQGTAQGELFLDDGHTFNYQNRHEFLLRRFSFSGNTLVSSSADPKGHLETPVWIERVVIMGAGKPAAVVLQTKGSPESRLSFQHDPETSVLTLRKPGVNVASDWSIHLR
T3 sequence (A0A8I6ADW9 1-525 partner): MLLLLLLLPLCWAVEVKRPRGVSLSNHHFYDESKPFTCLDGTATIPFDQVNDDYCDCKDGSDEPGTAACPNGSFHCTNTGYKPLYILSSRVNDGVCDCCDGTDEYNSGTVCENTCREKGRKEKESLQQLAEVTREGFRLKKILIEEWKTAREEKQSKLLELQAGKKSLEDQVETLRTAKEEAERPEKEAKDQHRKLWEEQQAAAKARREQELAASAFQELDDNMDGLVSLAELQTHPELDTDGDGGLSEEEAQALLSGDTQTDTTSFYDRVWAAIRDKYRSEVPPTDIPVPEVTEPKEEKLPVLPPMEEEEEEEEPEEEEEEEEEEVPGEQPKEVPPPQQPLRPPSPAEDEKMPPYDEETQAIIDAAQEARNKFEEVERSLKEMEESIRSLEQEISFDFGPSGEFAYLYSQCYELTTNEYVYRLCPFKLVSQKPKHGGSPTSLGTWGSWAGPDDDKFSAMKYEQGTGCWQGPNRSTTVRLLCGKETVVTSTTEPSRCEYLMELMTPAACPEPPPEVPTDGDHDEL

`Cc1c(C)c2c(c(C)c1OCCCCCN1CC(O)C(O)C(O)C1CO)CCC(C)(CCCC(C)CCCC(C)CCCC(C)C)O2` (centres unmarked) [Compound 4, 5′-tocopheroxypentyl-DNJ]: the inhibition at 50 µM was below 50% in assay [1] (50 μM, read-out: inhibition of lysosomal glucosidase at the maximum tested concentration) and below 50% at Rat intestinal sucrase (50 μM, read-out: inhibition of intestinal sucrase at the maximum tested concentration). The results for the IC50 (in assay [1]; on Rat intestinal sucrase; in assay [4]) were above 50 µM, above 50 µM and 9 µM, respectively. In addition, the “glucosylated free oligosaccharides (FOS) observed after treatment” value is on record as “Only monoglucosylated FOS accumulated” in assay [2]; “did not” in assay [3] (10 µm); “detected” in assay [3] (50 µm); “production of monoglucosylated FOS” in assay [3] (50 µm, listed as ToP-DNJ 4); “no glucosylated FOS were observed” in assay [5]; “no glucosylated FOS were detected” in assay [5] (listed as ToP-DNJ 4).
As to `CCCCN1CC(O)C(O)C(O)C1CO` [Compound 2, N-butyl-D-1-deoxynojirimycin, reference compound], the IC50 in assay [1] amounted to 2.1 µM; on Rat intestinal sucrase, 0.43 µM; in assay [4] it was 13 µM. Besides, the “glucosylated free oligosaccharides (FOS) observed after treatment” value is “mono- and triglucosylated FOS were observed” in assay [2]; “produced glucosylated FOS” in assay [3] (10 µm); “inhibits both enzymes” in assay [5].
